Data reported in US20250276989A1, “GPR40 AGONISTS” (Kallyope, Inc., priority 2020, published 2025).

Test system: not listed separately
Test: In vivo plasma levels in mice
Settings: male C57BL/6J mice, 30 mg/kg oral gavage, 2 h post-dose; total exposure x free fraction from plasma protein binding
Experimental: Male C57BL/6J mice 10-12 weeks old were dosed with test article (30 mg/kg) or vehicle by oral gavage. Animals were euthanized with carbon dioxide at 2 h or 5 h post dose. Blood was collected for measurement of plasma concentrations of test article. Unbound exposure was calculated by multiplying the measured total exposure by the free fraction as assessed from plasma protein binding.
Plasma protein binding to isotonic phosphate buffer (PBS) containing 10% C57 BL/6 mouse plasma was determined using equilibrium dialysis of plasma spiked with test article (2 μM) against a dialysis buffer (100 mM sodium phosphate and 150 mM NaCl). At the end of the dialysis (4 hr), aliquots of the plasma and buffer were processed by protein precipitation for LC-MS/MS analysis to quantitate the test article.
Results for exemplary compounds (total exposure in plasma and unbound exposure in plasma; ratio of EC50 to unbound exposure in plasma) are shown in Table 2.

For COc1ccc(F)c([C@H]2CC[C@H](COc3cccc(C(CP(C)(=O)O)C4CC4)c3)CC2)c1 (single isomer, unassigned) [Compound 5, (2-cyclopropyl-2-(3-(((trans)-4-(2-fluoro-5-methoxyphenyl)cyclohexyl)methoxy)phenyl)ethyl)(methyl)phosphinic acid], the “Exposure (nM) (unbound), unbound exposure in plasma” value was 2.5 nM.

Same assay, conditions: male C57BL/6J mice, 30 mg/kg oral gavage, 5 h post-dose; total exposure x free fraction from plasma protein binding

For COc1ccc(F)c([C@H]2CC[C@H](COc3cc([C@@H](CP(C)(=O)O)C4CC4)ccn3)CC2)c1 [Compound 9, ((S)-2-cyclopropyl-2-(2-(((trans)-4-(2-fluoro-5-methoxyphenyl)cyclohexyl)methoxy)pyridin-4-yl)ethyl)(methyl)phosphinic acid], the “Exposure (nM) (unbound), unbound exposure in plasma” value was 2.3 nM.

Same assay, conditions: mouse, plasma; male C57BL/6J mice, 30 mg/kg oral gavage, 2 h post-dose; read-out: Exposure (nM), total exposure in plasma

COc1ccc(F)c([C@H]2CC[C@H](COc3cccc(C(CP(C)(=O)O)C4CC4)c3)CC2)c1 (single isomer, unassigned) [Compound 5, (2-cyclopropyl-2-(3-(((trans)-4-(2-fluoro-5-methoxyphenyl)cyclohexyl)methoxy)phenyl)ethyl)(methyl)phosphinic acid] showed a concentration at 2 h of 8300 nM.

Same assay, conditions: mouse, plasma; male C57BL/6J mice, 30 mg/kg oral gavage, 5 h post-dose; read-out: Exposure (nM), total exposure in plasma

For COc1ccc(F)c([C@H]2CC[C@H](COc3cc([C@@H](CP(C)(=O)O)C4CC4)ccn3)CC2)c1 [Compound 9, ((S)-2-cyclopropyl-2-(2-(((trans)-4-(2-fluoro-5-methoxyphenyl)cyclohexyl)methoxy)pyridin-4-yl)ethyl)(methyl)phosphinic acid], the concentration at 5 h was 1160 nM.

Molecular target: T1, human GPR40 (Homo sapiens, UniProt O14842)
T1 construct: host or cells: CHO-K1
T1 sequence (O14842 whole entry): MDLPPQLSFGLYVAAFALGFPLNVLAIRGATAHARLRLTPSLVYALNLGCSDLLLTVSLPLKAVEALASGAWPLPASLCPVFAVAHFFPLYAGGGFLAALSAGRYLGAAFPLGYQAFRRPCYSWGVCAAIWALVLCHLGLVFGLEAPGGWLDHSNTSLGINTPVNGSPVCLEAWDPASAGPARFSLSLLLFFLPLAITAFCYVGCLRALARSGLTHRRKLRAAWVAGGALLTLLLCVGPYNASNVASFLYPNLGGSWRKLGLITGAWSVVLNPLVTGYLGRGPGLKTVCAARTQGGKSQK
Test: Inositol phosphate accumulation assay (IP1 HTRF) in CHO-K1 cells expressing human GPR40
Format: cell-based
Settings: 90 min stimulation
Experimental: CHO-K1 cells expressing human GPR40 were purchased from DiscoverX (95-1005C2). HEK293 cells expressing mouse FFAR1 were prepared using a mouse FFAR1 carrying plasmid purchased from OriGene Technologies (MR222997). The cells were transfected using Lipofectamine 2000 using manufacturer instructions and stable cell line was established from a single cell using geneticine selection. Assay ready frozen (ARF) cells were prepared and used throughout the study.
The assay was performed in a 384-well plate format using IP1 assay kit from Cis-Bio. ARF cells expressing FFAR1 (mouse and human) were thawed, washed and then plated in the appropriate medium (F12 based medium for CHO hFFAR1 and DMEM based medium for HEK293 mFFAR1—both were supplemented with 10% FBS and penicillin/streptomycin). 20 μL of 3.5×10^5 cells/mL were plated on a Poly D-Lysine coated 384-well white plate. The cells were then incubated for 16 hr at 37° C./5% CO2. After 16 hr the medium was removed and 15 μL of stimulation buffer containing the test compounds was added to the cells. The plates were then incubated for 90 min at 37° C./5% CO2. 5 μL of detection buffer (prepared as described in the IP-one kit) was added to each well and the plates were incubated at RT for 1 hr.
[…] was measured using ClarioSTAR plate reader, calculating the ratio between emissions at 665 nm and 620 nm (HTRF ratio). HTRF ratio for positive (Max) and negative (Min) controls were used to normalize HTRF data and generate values for % activity. EC50 and Max activity values were determined using a standard 4-parameter fit.

COc1ccc(CCCC(C)(C)C)c(N2CCC(COc3cccc([C@@H](C)CP(C)(=O)O)c3)CC2)c1 [Compound 14, ((R)-2-(3-((1-(2-(4,4-dimethylpentyl)-5-methoxyphenyl)piperidin-4-yl)methoxy)phenyl)propyl)(methyl)phosphinic acid] and COc1ccc(CCCC(C)(C)C)c(N2CCC(COc3cccc([C@H](C)CP(C)(=O)O)c3)CC2)c1 [Compound 15, ((S)-2-(3-((1-(2-(4,4-dimethylpentyl)-5-methoxyphenyl)piperidin-4-yl)methoxy)phenyl)propyl)(methyl)phosphinic acid] cannot be ordered by EC50: 50 to 250 nM for the first, no more than 50 nM for the second.

COc1ccc(F)c([C@H]2CC[C@H](COc3cccc(C(C4CC4)C(C)P(=O)(O)O)c3)CC2)c1 (stereo partly drawn) [Compound 4, (1-cyclopropyl-1-(3-(((trans)-4-(2-fluoro-5-methoxyphenyl)cyclohexyl)methoxy)phenyl)propan-2-yl)phosphonic acid] and COc1ccc(F)c([C@H]2CC[C@H](COc3cccc(C(CP(=O)(O)O)C4CC4)c3)CC2)c1 (stereo partly drawn) [Compound 2, (2-cyclopropyl-2-(3-(((trans)-4-(2-fluoro-5-methoxyphenyl)cyclohexyl)methoxy)phenyl)ethyl)phosphonic acid] cannot be ordered by EC50: greater than 1000 nM for the first, greater than 1000 nM for the second.

Compared with COc1ccc(F)c([C@H]2CC[C@H](COc3cccc(C(CP(C)(=O)O)C4CC4)c3)CC2)c1 (single isomer, unassigned) [Compound 6, (2-cyclopropyl-2-(3-(((trans)-4-(2-fluoro-5-methoxyphenyl)cyclohexyl)methoxy)phenyl)ethyl)(methyl)phosphinic acid], COc1ccc(F)c([C@H]2CC[C@H](COc3cccc(C(CP(=O)(O)OC)C4CC4)c3)CC2)c1 (stereo partly drawn) [Compound 1, methyl hydrogen (2-cyclopropyl-2-(3-(((trans)-4-(2-fluoro-5-methoxyphenyl)cyclohexyl)methoxy)phenyl)ethyl)phosphonate] is higher in EC50: 50 to 250 nM for the first, 250 to 1000 nM for the second.

Compared with COc1ccc(F)c([C@H]2CC[C@H](COc3cccc(C(CP(C)(=O)O)C4CC4)c3)CC2)c1 (single isomer, unassigned) [Compound 5, (2-cyclopropyl-2-(3-(((trans)-4-(2-fluoro-5-methoxyphenyl)cyclohexyl)methoxy)phenyl)ethyl)(methyl)phosphinic acid], COc1ccc(F)c([C@H]2CC[C@H](COc3cccc(C(CS(=O)(=O)O)C4CC4)c3)CC2)c1 (stereo partly drawn) [Compound 3, 2-cyclopropyl-2-(3-(((trans)-4-(2-fluoro-5-methoxyphenyl)cyclohexyl)methoxy)phenyl)ethanesulfonic acid] is higher in EC50: no more than 50 nM for the first, greater than 1000 nM for the second. The first is the more potent here.

Compared with COc1ccc(CCCC(C)(C)C)c(N2CCC(COc3cc([C@@H](CP(C)(=O)O)C4CC4)ccn3)CC2)c1 [Compound 11, ((S)-2-cyclopropyl-2-(2-((1-(2-(4,4-dimethylpentyl)-5-methoxyphenyl)piperidin-4-yl)methoxy)pyridin-4-yl)ethyl)(methyl)phosphinic acid], COc1ccc(CCCC(C)(C)C)c(N2CCC(COc3cc([C@H](C)CP(C)(=O)O)ccn3)CC2)c1 [Compound 13, ((S)-2-(2-((1-(2-(4,4-dimethylpentyl)-5-methoxyphenyl)piperidin-4-yl)methoxy)pyridin-4-yl)propyl)(methyl)phosphinic acid] is higher in EC50: no more than 50 nM for the first, 250 to 1000 nM for the second.

CC[C@H](Cc1cccc(OCC2CCN(c3cc(OC)ccc3CCCC(C)(C)C)CC2)c1)P(C)(=O)O [Compound 17, ((R)-1-(3-((1-(2-(4,4-dimethylpentyl)-5-methoxyphenyl)piperidin-4-yl)methoxy)phenyl)butan-2-yl)(methyl)phosphinic acid] and CC[C@@H](Cc1cccc(OCC2CCN(c3cc(OC)ccc3CCCC(C)(C)C)CC2)c1)P(C)(=O)O [Compound 18, ((S)-1-(3-((1-(2-(4,4-dimethylpentyl)-5-methoxyphenyl)piperidin-4-yl)methoxy)phenyl)butan-2-yl)(methyl)phosphinic acid] fall in the same range of EC50: 250 to 1000 nM for the first, 250 to 1000 nM for the second.

First: COc1ccc(CCCC(C)(C)C)c(N2CCC(COc3cccc(CC(C)P(=O)(O)O)c3)CC2)c1 (stereo not drawn) [Compound 16, (1-(3-((1-(2-(4,4-dimethylpentyl)-5-methoxyphenyl)piperidin-4-yl)methoxy)phenyl)propan-2-yl)phosphonic acid]
Second: COc1ccc(CCCC(C)(C)C)c(N2CCC(COc3cccc([C@H](C)CP(=O)(O)O)c3)CC2)c1 [Compound 19, (S)-(2-(3-((1-(2-(4,4-dimethylpentyl)-5-methoxyphenyl)piperidin-4-yl)methoxy)phenyl)propyl)phosphonic acid]
The EC50 of the first is higher: greater than 1000 nM for the first, 250 to 1000 nM for the second. The second is the more potent here.

COc1ccc(F)c([C@H]2CC[C@H](COc3cccc(C(CP(C)(=O)O)C4CC4)c3)CC2)c1 (single isomer, unassigned) [Compound 8, (2-cyclopropyl-2-(3-(((trans)-4-(2-fluoro-5-methoxyphenyl)cyclohexyl)methoxy)phenyl)ethyl)(methyl)phosphinic acid] and COc1ccc(F)c([C@H]2CC[C@H](COc3cc([C@@H](CP(C)(=O)O)C4CC4)ccn3)CC2)c1 [Compound 9, ((S)-2-cyclopropyl-2-(2-(((trans)-4-(2-fluoro-5-methoxyphenyl)cyclohexyl)methoxy)pyridin-4-yl)ethyl)(methyl)phosphinic acid] cannot be ordered by EC50: 50 to 250 nM for the first, no more than 50 nM for the second.

First: COc1ccc(CCCC(C)(C)C)c(N2CCC(COc3cc([C@@H](C)CP(C)(=O)O)ccn3)CC2)c1 [Compound 12, ((R)-2-(2-((1-(2-(4,4-dimethylpentyl)-5-methoxyphenyl)piperidin-4-yl)methoxy)pyridin-4-yl)propyl)(methyl)phosphinic acid]
Second: COc1ccc(CCCC(C)(C)C)c(N2CCC(COc3cccc([C@@H](C)CP(=O)(O)O)c3)CC2)c1 [Compound 20, (R)-(2-(3-((1-(2-(4,4-dimethylpentyl)-5-methoxyphenyl)piperidin-4-yl)methoxy)phenyl)propyl)phosphonic acid]
The EC50 of the first is lower: no more than 50 nM for the first, greater than 1000 nM for the second. The first is the more potent here.

COc1ccc(CCCC(C)(C)C)c(N2CCC(COc3cccc([C@@H](CP(C)(=O)O)C4CC4)c3)CC2)c1 [Compound 10, ((S)-2-cyclopropyl-2-(3-((1-(2-(4,4-dimethylpentyl)-5-methoxyphenyl)piperidin-4-yl)methoxy)phenyl)ethyl)(methyl)phosphinic acid] and COc1ccc(F)c([C@H]2CC[C@H](COc3cccc(C(CP(C)(=O)O)C4CC4)c3)CC2)c1 (single isomer, unassigned) [Compound 7, (2-cyclopropyl-2-(3-(((trans)-4-(2-fluoro-5-methoxyphenyl)cyclohexyl)methoxy)phenyl)ethyl)(methyl)phosphinic acid] cannot be ordered by EC50: no more than 50 nM for the first, no more than 50 nM for the second.
